Data on one molecule can be found in US20260234116A1, “CYTOTOXIC EPOXYKETONE COMPOUNDS, PRECURSORS, COMPOSITIONS, AND METHODS OF USE” (Memorial Sloan-Kettering Cancer Center, priority 2023, published 2026).

The subject of assay [1] is EL4 mouse lymphoma. Put plainly: Cytotoxicity of epoxyketones, CellTitre-Glo, 48 h. To be noted: EL4, 48 h. The class given is cell-based. The protocol:
(§1) Cytotoxicity Assays. Cancer cell lines (ATCC: U266 multiple myeloma, EL4 mouse lymphoma, Raji B-cell lymphoma) were cultured in Roswell Park Memorial Institute (RPMI) medium supplemented with 10% fetal bovine serum (FBS), 2 mM L-glutamine, 100 IU/mL penicillin, 100 μg/mL nonessential amino acids, 1 mM sodium pyruvate, and 57 μM β-mercaptoethanol. Cells (90 μL) were seeded in the inner 60 wells of an opaque-wall, clear flat-bottom 96-well plate (Corning/Falcon, 351177) at 20,000 cells per well. The outer perimeter wells were filled with 200 μL PBS to reduce evaporation in the central 60 wells. Epoxyketones 12 (20 mM in DMSO) were diluted in RPMI media to 1 mM (5% DMSO final concentration). Each epoxyketone was then diluted log-fold into 10 concentrations with 5% DMSO in RPMI. Each epoxyketone solution (10 μL) was added to the cells for a 0.5% DMSO final concentration across all wells and final epoxyketone concentrations of 100-0.005 μM. Negative control wells were treated with 10 μL of 5% DMSO in RPMI. Cells were incubated with compounds for 48 h, then cytotoxicity was measured with the CellTitre-Glo assay (Promega G9241).

The subject of assay [2] is U266 multiple myeloma. The assay is described as follows: Cytotoxicity of epoxyketones, CellTitre-Glo, 48 h. To be noted: Homo sapiens, U-266, U266, 48 h. Format: cell-based. The protocol:
as §1

The subject of assay [3] is Raji B-cell lymphoma. Put plainly: Cytotoxicity of epoxyketones, CellTitre-Glo, 48 h. The class given is cell-based. To be noted: Homo sapiens. The protocol: as §1
Assay [4] concerns chymotrypsin-like activity of the proteasome, Jurkat cell lysates. The assay is described as follows: Proteasome inhibition assay (abcam Proteasome Activity Assay Kit). Format: biochemical. As to conditions: 10 μM concentration, 1 h at 37° C. The protocol: Epoxyketones 12 were analyzed for proteasome inhibition using a Proteasome Activity Assay Kit (abcam ab107921). The protocol was followed as described by the manufacturer, except that the proteasome sample supplied in the kit was diluted by 10-fold more than indicated in the manual to increase the number of samples that could be analyzed per kit. Thus, the supplied proteasome sample was resuspended in 100 μL ddH2O, then further diluted with 900 μL of the supplied assay buffer. The supplied proteasome inhibitor, MG-132 (benzyl [(2S)-4-methyl-1-{[(2S)-4-methyl-1-{[(2S)-4-methyl-1-oxopentan-2-yl]amino}-1-oxopentan-2-yl]amino}-1-oxopentan-2-yl]carbamate; structure illustrated below), was also diluted 10-fold to a working concentration of 1 mM in DMSO. The epoxyketones 12 and epoxomicin positive control (Selleck Chemicals) were also diluted to working stocks of 1 mM in DMSO. Proteasome samples (99 μL) were added to a white, opaque 96-well plate (PerkinElmer, OptiPlate-96) and treated with 1 μL of compound solutions (10 μM final concentration). Samples were incubated for 1 h at 37° C. then analyzed for fluorescence (λ^ex 350 nm, λ^em 440 nm) on a plate reader (Molecular Devices Spectramax M3). Three separate assay kits were used as biological replicates. Data were normalized to the average signal from the no-inhibitor negative control. […]

The test system of assay [5] is EL4 lymphoma cells. To be noted: reported (prepared by total synthesis); cited from earlier work.

The structures appear in SMILES notation. Like-named read-outs stand apart in the source and are kept apart here.

Turning to `CC(C)CCCCC(=O)N[C@@H](CO)C(=O)N[C@@H](CC(C)C)C(=O)[C@@]1(C)CO1` [Compound 12a, N-[(1S)-2-Hydroxy-1-{[(2S)-4-methyl-1-[(2R)-2-methyloxiran-2-yl]-1-oxopentan-2-yl]carbamoyl}ethyl]-6-methylheptanamide], the IC50 in assay [1] (read-out: IC50) was 440 nM; in assay [1] (read-out: log IC50 (converted)), 407 nM; in assay [2] (read-out: IC50), 230 nM; in assay [2] (read-out: log IC50 (converted)), 229 nM; in assay [3] (read-out: IC50), 200 nM; in assay [3] (read-out: log IC50 (converted)), 195 nM. For the same molecule, the IC50 in assay [5] is 260 ± 50 nM. Further, the “inhibition of proteasome activity” value in assay [4] was “at a level comparable to that of epoxomicin”.
